Source: ChEMBL document CHEMBL4406870, “Design, synthesis, and biological evaluation of 4-phenoxyquinoline derivatives as potent c-Met kinase inhibitor” (Bioorg Med Chem Lett, 2019)

Legend:
NCI-H460 [1] = test: Potency index, ratio of IC50 of foretinib to IC50 of compound for cytotoxicity against human H460 cells assessed as reduction in cell viability incubated for 72 hrs by MTT assay; assay type: functional
[2] = biological target: Hepatocyte growth factor receptor (Homo sapiens, UniProt P08581); test: Inhibition of cMET (unknown origin) using poly (Glu, Tyr) 4:1 as substrate incubated for 30 mins by HTRF assay
A549 [3] = test: cells; conditions: Homo sapiens, A549, 72 h
Description: Cytotoxicity against human A549 cells assessed as reduction in cell viability incubated for 72 hrs by MTT assay

HT-29 [4] = test: cells; conditions: Homo sapiens, HT-29, 72 h
Description: Cytotoxicity against human HT-29 cells assessed as reduction in cell viability incubated for 72 hrs by MTT assay

A549 [5] = test: Potency index, ratio of IC50 of foretinib to IC50 of compound for cytotoxicity against human A549 cells assessed as reduction in cell viability incubated for 72 hrs by MTT assay; assay type: functional
HT-29 [6] = test: Potency index, ratio of IC50 of foretinib to IC50 of compound for cytotoxicity against human HT-29 cells assessed as reduction in cell viability incubated for 72 hrs by MTT assay; assay type: functional
NCI-H460 [7] = test: cells; conditions: Homo sapiens, NCI-H460, 72 h
Description: Cytotoxicity against human H460 cells assessed as reduction in cell viability incubated for 72 hrs by MTT assay

MKN-45 = test: cells; conditions: Homo sapiens, MKN-45, 72 h
Description: Cytotoxicity against human MKN45 cells assessed as reduction in cell viability incubated for 72 hrs by MTT assay

U-87 MG = test: cells; conditions: Homo sapiens, 72 h
Description: Cytotoxicity against human U87MG cells assessed as reduction in cell viability incubated for 72 hrs by MTT assay

Sequence of Hepatocyte growth factor receptor (P08581 whole entry): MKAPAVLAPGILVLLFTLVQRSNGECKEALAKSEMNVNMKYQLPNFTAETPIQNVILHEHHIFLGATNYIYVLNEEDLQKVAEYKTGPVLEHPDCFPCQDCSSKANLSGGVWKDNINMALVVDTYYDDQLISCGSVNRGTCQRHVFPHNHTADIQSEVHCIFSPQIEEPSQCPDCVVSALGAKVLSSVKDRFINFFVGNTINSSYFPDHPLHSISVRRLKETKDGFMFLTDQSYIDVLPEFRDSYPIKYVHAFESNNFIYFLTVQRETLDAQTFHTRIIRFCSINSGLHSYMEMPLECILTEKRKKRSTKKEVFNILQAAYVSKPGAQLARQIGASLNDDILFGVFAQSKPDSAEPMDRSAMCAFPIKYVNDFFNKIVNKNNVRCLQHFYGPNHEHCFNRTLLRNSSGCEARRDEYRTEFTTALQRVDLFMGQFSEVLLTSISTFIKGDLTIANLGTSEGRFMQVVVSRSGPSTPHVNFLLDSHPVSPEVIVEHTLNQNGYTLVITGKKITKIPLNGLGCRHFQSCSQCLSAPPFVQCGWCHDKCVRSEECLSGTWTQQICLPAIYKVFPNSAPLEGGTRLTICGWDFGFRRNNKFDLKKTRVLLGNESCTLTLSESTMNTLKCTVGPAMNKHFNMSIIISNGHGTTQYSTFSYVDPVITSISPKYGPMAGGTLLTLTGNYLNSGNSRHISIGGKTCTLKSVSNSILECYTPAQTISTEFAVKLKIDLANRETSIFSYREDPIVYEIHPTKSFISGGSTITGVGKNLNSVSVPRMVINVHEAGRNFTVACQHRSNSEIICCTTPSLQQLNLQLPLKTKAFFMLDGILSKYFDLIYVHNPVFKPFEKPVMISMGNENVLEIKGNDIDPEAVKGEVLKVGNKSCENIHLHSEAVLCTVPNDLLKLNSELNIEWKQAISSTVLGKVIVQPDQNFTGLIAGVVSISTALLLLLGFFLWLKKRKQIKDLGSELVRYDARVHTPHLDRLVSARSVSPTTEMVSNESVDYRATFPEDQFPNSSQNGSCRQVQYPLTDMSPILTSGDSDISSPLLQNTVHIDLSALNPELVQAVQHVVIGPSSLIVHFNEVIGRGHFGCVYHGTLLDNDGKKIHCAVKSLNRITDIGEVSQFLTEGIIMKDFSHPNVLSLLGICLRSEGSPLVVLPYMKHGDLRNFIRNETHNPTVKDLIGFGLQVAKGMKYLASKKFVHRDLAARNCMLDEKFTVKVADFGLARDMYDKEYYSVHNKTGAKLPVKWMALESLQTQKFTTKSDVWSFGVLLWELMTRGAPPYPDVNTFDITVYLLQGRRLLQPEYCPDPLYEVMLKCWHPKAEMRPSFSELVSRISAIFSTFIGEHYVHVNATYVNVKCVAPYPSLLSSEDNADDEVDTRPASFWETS

Which results are given for `COc1cc2c(Oc3ccc(NC(=O)c4nc5ccccc5n(C5CCCCC5)c4=O)cc3F)ccnc2cc1OCCCN1CCOCC1`?
Ratio IC50 (NCI-H460 [1]): 5; IC50 [2]: 1.42 nM; IC50 (A549 [3]): 390 nM; IC50 (HT-29 [4]): 380 nM; Ratio IC50 (A549 [5]): 5; Ratio IC50 (HT-29 [6]): 5; IC50 (NCI-H460 [7]): 180 nM; IC50 (MKN-45): 180 nM; IC50 (U-87 MG): 810 nM

Which IC50 (A549 [3]) does the source give for `COc1ccc(CCn2c(=O)c(C(=O)Nc3ccc(Oc4ccnc5cc(OCCCN6CCCCC6)c(OC)cc45)c(F)c3)nc3ccccc32)cc1` here?
Its IC50 is 1010 nM.

What about the IC50 (HT-29 [4]) of the same molecule?
Its IC50 is 940 nM.

What about the IC50 (NCI-H460 [7]) of the same molecule?
The IC50 was 450 nM.

What about the IC50 (MKN-45) of the same molecule?
Its IC50 is 480 nM.

What about the IC50 (U-87 MG) of the same molecule?
The IC50 was 1600 nM.

For `COc1cc2c(Oc3ccc(NC(=O)c4nc5ccccc5n(C5CCCC5)c4=O)cc3F)ccnc2cc1OCCCN1CCOCC1`, which IC50 (A549 [3]) is on record?
Its IC50 is 2480 nM.

And the IC50 (HT-29 [4])?
The IC50 was 4030 nM.

What about the IC50 (NCI-H460 [7]) of the same molecule?
Its IC50 is 1670 nM.

What about the IC50 (MKN-45) of the same molecule?
The IC50 was 3500 nM.

And the IC50 (U-87 MG)?
The IC50 was 2990 nM.

How did the IC50 (A549 [3]) turn out when `COc1cc2c(Oc3ccc(NC(=O)c4nc5ccccc5n(Cc5ccc(F)cc5)c4=O)cc3F)ccnc2cc1OCCCN1CCOCC1` was run?
Its IC50 is 2020 nM.

And the IC50 (HT-29 [4])?
The IC50 was 2380 nM.

And the IC50 (NCI-H460 [7])?
Its IC50 is 930 nM.

What about the IC50 (MKN-45) of the same molecule?
Its IC50 is 260 nM.

And the IC50 (U-87 MG)?
The IC50 was 650 nM.

For `COc1cc2c(Oc3ccc(NC(=O)c4nc5ccccc5n(C5CCCCC5)c4=O)cc3F)ccnc2cc1OCCCN1CCCCC1`, which IC50 (A549 [3]) is on record?
Its IC50 is 810 nM.

What about the IC50 (HT-29 [4]) of the same molecule?
The IC50 was 270 nM.

And the IC50 (NCI-H460 [7])?
The IC50 was 270 nM.

And the IC50 (MKN-45)?
Its IC50 is 270 nM.

What about the IC50 (U-87 MG) of the same molecule?
The IC50 was 760 nM.

Which results are given for `COc1cc2c(Oc3ccc(NC(=O)c4nc5ccccc5n(CCc5ccccc5)c4=O)cc3F)ccnc2cc1OCCCN1CCCCC1`?
IC50 (A549 [3]): 2360 nM; IC50 (HT-29 [4]): 870 nM; IC50 (NCI-H460 [7]): 2110 nM; IC50 (MKN-45): 180 nM; IC50 (U-87 MG): 3620 nM

Which results are given for `COc1cc2c(Oc3ccc(NC(=O)c4nc5ccccc5n(C5CCCCC5)c4=O)cc3F)ccnc2cc1OCCCN1CCN(C)CC1`?
Ratio IC50 (NCI-H460 [1]): 5; IC50 [2]: 2.34 nM; IC50 (A549 [3]): 320 nM; IC50 (HT-29 [4]): 230 nM; Ratio IC50 (A549 [5]): 5; Ratio IC50 (HT-29 [6]): 5; IC50 (NCI-H460 [7]): 230 nM; IC50 (MKN-45): 230 nM; IC50 (U-87 MG): 560 nM

For `COc1cc2c(Oc3ccc(NC(=O)c4nc5ccccc5n(C5CCCC5)c4=O)cc3F)ccnc2cc1OCCCN1CCN(C)CC1`, which IC50 (A549 [3]) is on record?
Its IC50 is 4370 nM.

And the IC50 (HT-29 [4])?
The IC50 was 2490 nM.

And the IC50 (NCI-H460 [7])?
The IC50 was 2110 nM.

What about the IC50 (MKN-45) of the same molecule?
The IC50 was 3720 nM.

What about the IC50 (U-87 MG) of the same molecule?
Its IC50 is 1590 nM.

Which IC50 (A549 [3]) does the source give for `COc1ccc(CCn2c(=O)c(C(=O)Nc3ccc(Oc4ccnc5cc(OCCCN6CCN(C)CC6)c(OC)cc45)c(F)c3)nc3ccccc32)cc1` here?
Its IC50 is 1670 nM.

And the IC50 (HT-29 [4])?
Its IC50 is 790 nM.

What about the IC50 (NCI-H460 [7]) of the same molecule?
Its IC50 is 3300 nM.

What about the IC50 (MKN-45) of the same molecule?
The IC50 was 4170 nM.

And the IC50 (U-87 MG)?
Its IC50 is over 10000 nM.

With `COc1cc2c(Oc3ccc(NC(=O)c4nc5ccccc5n(Cc5ccccc5)c4=O)cc3F)ccnc2cc1OCCCN1CCOCC1` as the molecule, how does the IC50 (A549 [3]) read?
The IC50 was 5330 nM.

What about the IC50 (HT-29 [4]) of the same molecule?
The IC50 was 1120 nM.

What about the IC50 (NCI-H460 [7]) of the same molecule?
The IC50 was 6700 nM.

What about the IC50 (MKN-45) of the same molecule?
The IC50 was 2790 nM.

And the IC50 (U-87 MG)?
The IC50 was 4280 nM.

Which IC50 (A549 [3]) does the source give for `COc1cc2c(Oc3ccc(NC(=O)c4nc5ccccc5n(C5CCCCC5)c4=O)cc3F)ccnc2cc1OCCCN1CCC(C)CC1` here?
The IC50 was 1070 nM.

What about the IC50 (HT-29 [4]) of the same molecule?
Its IC50 is 610 nM.

And the IC50 (NCI-H460 [7])?
The IC50 was 250 nM.

What about the IC50 (MKN-45) of the same molecule?
The IC50 was 250 nM.

And the IC50 (U-87 MG)?
Its IC50 is 1670 nM.
